IC50 data for 19 molecules are collected here from US10703746B2, “Mutant IDH1 inhibitors useful for treating cancer” (THE UNITED STATES OF AMERICA, AS REPRESENTED BY THE …, priority 2014, dated 2020).

One test has as its target IDH1 R132C (Homo sapiens, UniProt O75874, R132C). As to the kind of experiment: IDH1 R132C enzymatic assay (NADPH depletion coupled to diaphorase/resazurin). Format: biochemical. In outline:
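NADPH depletion, read via diaphorase/resazurin coupling, after adding substrate at 0.6 mM α-KG and 0.012 mM NADPH. Beforehand, 0.00032 mg/mL enzyme sat with compound 30 min at room temperature in pH 6.5 potassium phosphate buffer with MgCl2, glycerol and BSA.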
On the technique in general: Resazurin is reduced to fluorescent resorufin, in cell work by metabolically active cells.

The target in a further test is IDH1 R132H (Homo sapiens, UniProt O75874, R132H). The test can be described thus: IDH1 R132H enzymatic assay (NADPH depletion coupled to diaphorase/resazurin). Format: biochemical.
Setting [1] is: IDH1 R132C enzymatic inhibition, IC50 class.
Where [2] appears, read: IDH1 R132H enzymatic inhibition, IC50 class.
Where [3] appears, read: enzymatic inhibition, IDH1 R132C.
The mark [4] stands for this setting: enzymatic inhibition, IDH1 R132H.

IDH1 R132H, sequence (O75874 whole entry R132H): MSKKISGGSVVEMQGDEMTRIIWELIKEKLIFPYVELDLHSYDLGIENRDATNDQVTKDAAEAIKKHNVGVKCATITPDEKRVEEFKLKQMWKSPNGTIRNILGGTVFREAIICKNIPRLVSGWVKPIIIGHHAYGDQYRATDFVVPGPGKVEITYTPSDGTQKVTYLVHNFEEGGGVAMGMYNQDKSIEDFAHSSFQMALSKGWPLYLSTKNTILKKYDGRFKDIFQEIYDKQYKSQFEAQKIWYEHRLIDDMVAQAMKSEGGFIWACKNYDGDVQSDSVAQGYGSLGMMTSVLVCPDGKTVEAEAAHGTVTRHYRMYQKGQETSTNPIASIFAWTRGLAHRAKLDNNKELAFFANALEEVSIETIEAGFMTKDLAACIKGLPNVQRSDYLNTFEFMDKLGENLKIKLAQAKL
IDH1 R132C, sequence (O75874 whole entry R132C): as the sequence (O75874 whole entry R132H) above, with H132C counted along it

`CCc1cccc(CC)c1-n1c(CC(C)C)c(C(=O)N2CCNCC2)cc(-c2nc(-c3ccc(Cl)cc3)c(C(=O)OC)s2)c1=O` [Compound 387]: the half-maximal inhibitory concentration (IC50) against IDH1 R132C (setting [1]) and against IDH1 R132H (setting [2]) was less than 300 nM throughout.
In the case of `CCc1cccc(CC)c1-n1c(C=C(C)C)c(C(=O)N2C[C@H]3CC[C@@H](C2)N3)cc(-c2nc(-c3ccc(Cl)cc3)cs2)c1=O` [Compound 388], the IC50 at IDH1 R132C (setting [1]) and at IDH1 R132H (setting [2]) was less than 300 nM throughout.
For the molecule `COc1ccc(Cl)c(-n2c(C=C(C)C)c(C(=O)N3CCNCC3)cc(-c3ccn(-c4ccc(Cl)cc4)n3)c2=O)c1` [Compound 389], the IC50 (usually the concentration needed to halve the response being measured) against IDH1 R132C (setting [1]) was 300 to 1000 nM; on IDH1 R132H (setting [2]), less than 300 nM.
Taken in the same sequence, the figures for `CCc1cccc(CC)c1-n1c(CC(C)C)c(CO)cc(-c2nc(-c3ccc(Cl)cc3)cs2)c1=O` [Compound 391] were 300 to 1000 nM and 300 to 1000 nM.
As for `CCc1cccc(CC)c1-n1c(O)c(C(=O)CC(C)C)cc(-c2nc(-c3ccc(Cl)cc3)cs2)c1=O` [Compound 392], the IC50 on IDH1 R132C (setting [1]) and on IDH1 R132H (setting [2]) was 5000 to 20000 nM in each case.
For `CCc1cccc(CC)c1-n1c(COCCOC)c(C(=O)N2CCNCC2)cc(-c2nc(-c3ccc(Cl)cc3)cs2)c1=O` [Compound 393], the concentration for half-maximal inhibition (IC50) was 300 to 1000 nM at IDH1 R132C (setting [1]) and less than 300 nM against IDH1 R132H (setting [2]).
Taken in the same sequence, the figures for `COc1ccc(Cl)c(-n2c3c(cc(-c4nc(-c5ccc(Cl)cc5)cs4)c2=O)C(=O)CC(C)(C)C3)c1` [Compound 395] were less than 300 nM and 300 to 1000 nM.
Taken in the same sequence, the figures for `CCc1cccc(CC)c1-n1c(C=C(C)C)c(C(=O)N2CCNC(C(F)(F)F)C2)cc(-c2nc(-c3ccc(Cl)cc3)cs2)c1=O` (centres unmarked) [Compound 396] were less than 300 nM and less than 300 nM.
Taken in the same sequence, the figures for `COc1cccc(Cl)c1-n1c(C=C(C)C)c(C(=O)N2CCNCC2)cc(-c2nc(-c3ccc(Cl)cc3)cs2)c1=O` [Compound 397] were less than 300 nM and less than 300 nM.
As to `CCc1cccc(CC)c1-n1c(C2CCCC2)c(C(=O)N2CCNCC2)cc(-c2nc(-c3ccc(Cl)cc3)cs2)c1=O` [Compound 398], the 50% inhibitory concentration (IC50) against IDH1 R132C (setting [1]) is less than 300 nM; against IDH1 R132H (setting [2]) it was 300 to 1000 nM.
Taken in the same sequence, the figures for `CC(C)=Cc1c(C(=O)N2CCNCC2)cc(-c2nc(-c3ccc(Cl)cc3)cs2)c(=O)n1-c1ccccc1OC(C)C` [Compound 399] were less than 300 nM and less than 300 nM.
Taken in the same sequence, the figures for `CCc1cccc(CC)c1-n1c(C)c(C(=O)N2CCNCC2)c(O)c(C(=O)Nc2nc(-c3ccc(Cl)cc3)cs2)c1=O` [Compound 400] were more than 20000 nM and more than 20000 nM.
`CC(C)=Cc1c(C(=O)N2CCNCC2)cc(-c2nc(-c3ccc(Cl)cc3)cs2)c(=O)n1-c1cc(C)cnc1OC(C)C` [Compound 401]: the IC50 on IDH1 R132C (setting [1]) and against IDH1 R132H (setting [2]) was less than 300 nM in each case.
For the molecule `CC1(C)CC(=O)c2cc(-c3nc(-c4ccc(Cl)cc4)cs3)c(=O)n(-c3sccc3C#N)c2C1` [Compound 402], the results for the IC50 against IDH1 R132C (setting [3]) and against IDH1 R132H (setting [4]) were less than 300 nM and 300 to 1000 nM, respectively.
Taken in the same sequence, the figures for `CCOCc1c(C(=O)N2CCNCC2)cc(-c2nc(-c3ccc(Cl)cc3)cs2)c(=O)n1-c1c(CC)cccc1CC` [Compound 404] were less than 300 nM and less than 300 nM.
For `CCc1cccc(CC)c1-n1c(CC(C)C)c(C(=O)N2CCNCC2)cc(-c2nc(-c3ccc(Cl)nc3)c(C)s2)c1=O` [Compound 405], the half-inhibitory concentration (IC50) against IDH1 R132C (setting [3]) and against IDH1 R132H (setting [4]) was less than 300 nM each time.
Consider `CCc1ccc(N2CCN(C)CC2)c(CC)c1-n1c2c(cc(-c3nc(-c4ccc(Cl)cc4)cs3)c1=O)C(=O)CC(C)(C)C2` [Compound 406], for which the IC50 on IDH1 R132C (setting [3]) and on IDH1 R132H (setting [4]) was 5000 to 20000 nM throughout.
Regarding `CCOc1ncc(Cl)cc1-n1c(C=C(C)C)c(C(=O)N2CCNCC2)cc(-c2nc(-c3ccc(C(F)F)cc3)cs2)c1=O` [Compound 407], the half-maximal inhibitory concentration (IC50) is 300 to 1000 nM at IDH1 R132C (setting [3]) and less than 300 nM on IDH1 R132H (setting [4]).
Taken in the same sequence, the figures for `CCc1cccc(CC)c1-n1c(C=C(C)C)c(C(=O)N2CCNCC2)cc(-c2nc(-c3ccc(Cl)cc3)cs2)c1=O` [Compound 408] were less than 300 nM and less than 300 nM.
